Assay results as given in ChEMBL document CHEMBL1124877, “Synthesis and biological evaluation of 4-fluoro-, 7-fluoro-, and 4,7-difluoro-5,6-dihydroxytryptamines” (J Med Chem, 1990).

What was measured:
Format in all cases: functional, cell-based
Details in all cases: Mus musculus, N2a
[1] = Effect on the uptake of [3H]5-HT into differentiated N-2a cells.
[2] = Inhibition of [3H]- Thymidine incorporation into the DNA of differentiated neuroblastoma clone N-2a cells.
[3] = Inhibition of [3H]- Thymidine incorporation into the DNA of differentiated neuroblastoma clone N-2a cells

| SMILES | IC50 [1] | IC50 [2] | IC50 [3] |
| --- | --- | --- | --- |
| CN1CC(=O)NC1=N.NCCc1c[nH]c2cc(O)c(O)c(F)c12 | 0.55 µM | 117 µM |  |
| CN1CC(=O)NC1=N.NCCc1c[nH]c2c(F)c(O)c(O)cc12 | 0.76 µM | 125 µM |  |
| CN1CC(=O)NC1=N.NCCc1c[nH]c2c(F)c(O)c(O)c(F)c12 | 1.36 µM | 135 µM |  |
| NCCc1c[nH]c2cc(O)c(O)cc12 | 17.8 µM |  | 92 µM |
